Laboratory results: patent US20240018120A1, “MAGL INHIBITORS” (H. LUNDBECK A/S, priority 2020, published 2024)

Molecular target: T1, MAGL (Homo sapiens, UniProt Q99685)
T1 sequence (Q99685 1-303): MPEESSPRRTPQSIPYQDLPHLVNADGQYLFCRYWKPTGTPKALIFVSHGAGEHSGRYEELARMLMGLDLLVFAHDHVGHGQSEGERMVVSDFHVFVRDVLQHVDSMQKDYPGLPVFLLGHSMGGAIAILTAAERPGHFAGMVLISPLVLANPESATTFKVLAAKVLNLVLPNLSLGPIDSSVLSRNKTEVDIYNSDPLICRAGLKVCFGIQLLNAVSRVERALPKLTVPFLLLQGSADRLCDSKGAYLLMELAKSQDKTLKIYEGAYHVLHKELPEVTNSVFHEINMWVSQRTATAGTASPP
Assay: In vitro competitive activity-based protein profiling, PC3 human cell membrane proteomes
Format: biochemical
Set-up: endogenous in cells; host or cells: PC3 human cells (membrane proteome)
Conditions: human PC3 membrane proteome
Procedure: PC3 human cell membrane proteomes (50 μL, 2.0 mg/mL total protein concentration) were preincubated with varying concentrations of inhibitors at 37° C. After 30 min, the ABPP probe JW912-Bodipy (1.0 μL, 50 μM in DMSO) was added and the mixture was incubated for 30 min at room temperature. Reactions were quenched with SDS loading buffer (15 μL-4×) and run on SDS-PAGE. Following gel imaging, serine hydrolase activity was determined by measuring fluorescent intensity of gel bands corresponding to MAGL using ImageJ 1.43u software. Intensities were converted to percent enzyme activity by normalizing to DMSO controls. IC50 values were determined by fitting percent enzyme activities to a non-linear regression, 4-parameter, sigmoidal dose response function in Prism GraphPad.

Cc1ccc(NC(=O)C2CC23CCN(C(=O)OC(C(F)(F)F)C(F)(F)F)CC3)cc1 (single isomer, unassigned) [Example 144, 1,1,1,3,3,3-hexafluoropropan-2-yl (R or S)-1-(p-tolylcarbamoyl)-6-azaspiro[2.5]octane-6-carboxylate]
IC50: 0.0052 µM

Cc1ccc(NC(=O)C2CC23CCN(C(=O)OC(C(F)(F)F)C(F)(F)F)CC3)cc1 (single isomer, unassigned) [Example 145, 1,1,1,3,3,3-hexafluoropropan-2-yl (R or S)-1-(p-tolylcarbamoyl)-6-azaspiro[2.5]octane-6-carboxylate]
IC50: 0.27 µM

O=C(Nc1cccc(F)c1)C1CC12CCN(C(=O)OC(C(F)(F)F)C(F)(F)F)CC2 (single isomer, unassigned) [Example 147, 1,1,1,3,3,3-hexafluoropropan-2-yl (R or S)-1-((3-fluorophenyl)carbamoyl)-6-azaspiro[2.5]octane-6-carboxylate]
IC50: 0.0018 µM

O=C(Nc1cccc(F)c1)C1CC12CCN(C(=O)OC(C(F)(F)F)C(F)(F)F)CC2 (single isomer, unassigned) [Example 148, 1,1,1,3,3,3-hexafluoropropan-2-yl (R or S)-1-((3-fluorophenyl)carbamoyl)-6-azaspiro[2.5]octane-6-carboxylate]
IC50: 0.091 µM

O=C(NCc1ccccc1)[C@@H]1CC12CCN(C(=O)OC(C(F)(F)F)C(F)(F)F)CC2 (single isomer, unassigned) [Example 151]
IC50: 0.031 µM

O=C(NCc1cncnc1)C1CC12CCN(C(=O)OC(C(F)(F)F)C(F)(F)F)CC2 (single isomer, unassigned) [Example 153, 1,1,1,3,3,3-hexafluoropropan-2-yl (R or S)-1-((pyrimidin-5-ylmethyl)carbamoyl)-6-azaspiro[2.5]octane-6-carboxylate]
IC50: 0.077 µM

O=C(NCc1cncnc1)C1CC12CCN(C(=O)OC(C(F)(F)F)C(F)(F)F)CC2 (single isomer, unassigned) [Example 154, 1,1,1,3,3,3-hexafluoropropan-2-yl (R or S)-1-((pyrimidin-5-ylmethyl)carbamoyl)-6-azaspiro[2.5]octane-6-carboxylate]
IC50: 0.86 µM

O=C(NCc1cccnn1)C1CC12CCN(C(=O)OC(C(F)(F)F)C(F)(F)F)CC2 (single isomer, unassigned) [Example 156, 1,1,1,3,3,3-hexafluoropropan-2-yl (R or S)-1-((pyridazin-3-ylmethyl)carbamoyl)-6-azaspiro[2.5]octane-6-carboxylate]
IC50: 0.45 µM

O=C(NCc1cccnn1)C1CC12CCN(C(=O)OC(C(F)(F)F)C(F)(F)F)CC2 (single isomer, unassigned) [Example 157]
IC50: 0.23 µM

O=C(NC1CC2(COC2)C1)C1CC12CCN(C(=O)OC(C(F)(F)F)C(F)(F)F)CC2 (single isomer, unassigned) [Example 159, 1,1,1,3,3,3-hexafluoropropan-2-yl (R or S)-1-((2-oxaspiro[3.3]heptan-6-yl)carbamoyl)-6-azaspiro[2.5]octane-6-carboxylate]
IC50: 0.043 µM

O=C(NC1CC2(COC2)C1)C1CC12CCN(C(=O)OC(C(F)(F)F)C(F)(F)F)CC2 (single isomer, unassigned) [Example 160, 1,1,1,3,3,3-hexafluoropropan-2-yl (R or S)-1-((2-oxaspiro[3.3]heptan-6-yl)carbamoyl)-6-azaspiro[2.5]octane-6-carboxylate]
IC50: 0.59 µM

O=C(Nc1ccc(C2CC2)nc1)[C@@H]1CC12CCN(C(=O)OC(C(F)(F)F)C(F)(F)F)CC2 (single isomer, unassigned) [Example 162]
IC50: 0.16 µM

O=C(Nc1ccc(C2CC2)nc1)[C@H]1CC12CCN(C(=O)OC(C(F)(F)F)C(F)(F)F)CC2 (single isomer, unassigned) [Example 163]
IC50: 0.001 µM
